Source: the supplement of paper PMC10307832

Assays:
Assay in all cases: relative viability (nuclei count vs DMSO), 5 days (fraction); higher = more cells survive
[1] = compound: C#Cc1cccc(Nc2ncnc3cc(OC)c(OCCCCCCC(=O)NO)cc23)c1 [CUDC-101] + CCNC(=O)c1noc(-c2cc(C(C)C)c(O)cc2O)c1-c1ccc(CN2CCOCC2)cc1 [Luminespib] (partner 0.01 µM)
In short: (§1)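 Lung cancer cell lines, seeded in 1536-well plates, were treated the following day by pin tool with a single drug or with five library-drug doses (not always all listed) in √10 steps on top of a fixed anchor-drug dose. Cells were fixed and nuclei stained in one step after 5 days, and nuclei were counted. Relative viability is the nuclei count for treated wells divided by that for vehicle wells, reported as medians of duplicate plates.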

[2] = compound: C1=CC=C2C(=C1)N=C(S2)C(C#N)C3=NC(=NC=C3)NCCC4=CN=CC=C4 + CS(=O)(=O)N1CCN(Cc2cc3nc(-c4cccc5[nH]ncc45)nc(N4CCOCC4)c3s2)CC1 [Pictilisib] (partner 1 µM)
In short: as §1

[3] = compound: C1=CC=C2C(=C1)N=C(S2)C(C#N)C3=NC(=NC=C3)NCCC4=CN=CC=C4 + NC(=O)Nc1cc(-c2cccc(F)c2)sc1C(=O)N[C@H]1CCCNC1 [AZD7762] (partner 0.2 µM)
In short: as §1

[4] = compound: COc1cc(N2CCC(N3CCN(C)CC3)CC2)ccc1Nc1ncc(Cl)c(Nc2ccccc2S(=O)(=O)C(C)C)n1 [NVP-TAE684] + Nc1nc2[nH]cc(CCc3ccc(C(=O)N[C@@H](CCC(=O)O)C(=O)O)cc3)c2c(=O)[nH]1 [Pemetrexed] (partner 0.2 µM)
In short: as §1

| Cell Line | relative viability ([1]; first compound 0.01 µM) | relative viability ([1]; first compound 0.03162 µM) | relative viability ([1]; first compound 0.1 µM) | relative viability ([1]; first compound 0.3162 µM) | relative viability ([1]; first compound 1 µM) | relative viability ([2]; first compound 0.005 µM) | relative viability ([2]; first compound 0.01581 µM) | relative viability ([2]; first compound 0.05 µM) | relative viability ([2]; first compound 0.1581 µM) | relative viability ([2]; first compound 0.5 µM) | relative viability ([3]; first compound 0.005 µM) | relative viability ([3]; first compound 0.01581 µM) | relative viability ([3]; first compound 0.05 µM) | relative viability ([3]; first compound 0.1581 µM) | relative viability ([3]; first compound 0.5 µM) | relative viability ([4]; first compound 0.2 µM) | relative viability ([4]; first compound 0.6325 µM) | relative viability ([4]; first compound 2 µM) |
| --- | --- | --- | --- | --- | --- | --- | --- | --- | --- | --- | --- | --- | --- | --- | --- | --- | --- | --- |
| EPLC-272H | 0.141 | 0.554 | 0.598 | 0.269 | 0.257 | 0.271 | 0.277 | 0.288 | 0.352 | 0.267 | 0.307 | 0.243 | 0.254 | 0.25 | 0.21 | 0.425 | 0.297 | 0.15 |
| CAL-12T | 0.525 | 0.337 | 0.337 | 0.556 | 0.36 | 0.607 |  |  | 0.551 | 0.375 | 0.571 | 0.575 | 0.628 | 0.608 | 0.543 | 0.973 | 1.16 | 0.492 |
| NCI-H1755 | 0.602 | 0.302 | 0.496 | 0.576 | 0.394 | 0.392 | 0.35 | 0.379 | 0.576 | 0.384 | 0.458 | 0.539 | 0.506 | 0.542 | 0.43 | 0.394 | 0.583 | 0.384 |
| H3255 | 0.845 | 0.648 |  | 0.541 | 0.439 | 0.493 | 0.449 | 0.47 | 0.553 | 0.535 | 0.993 | 0.876 | 0.912 | 0.916 | 0.829 | 0.531 | 0.519 | 0.449 |
| NCI-H441 | 0.359 | 0.381 | 0.304 | 0.414 | 0.371 |  | 0.458 | 0.549 | 0.55 | 0.494 | 1.02 | 1.14 | 1.28 | 1.02 | 0.986 | 0.271 | 0.29 | 0.223 |
| NCI-H1793 | 0.17 | 0.174 | 0.174 | 0.201 | 0.143 | 0.329 | 0.275 | 0.353 | 0.267 | 0.352 |  | 0.391 | 0.58 | 0.513 | 0.306 | 0.929 | 0.651 | 0.779 |
| LK-2 | 0.248 | 0.196 | 0.19 | 0.179 | 0.178 |  |  | 0.531 | 0.597 | 0.685 | 0.347 | 0.41 | 0.488 | 0.454 | 0.445 | 0.271 | 0.229 | 0.175 |
| ChaGo-K-1 | 0.74 | 0.522 | 0.625 | 0.709 | 0.609 | 0.655 |  | 0.445 | 0.953 | 0.662 | 0.781 | 0.886 | 0.911 | 0.884 | 0.764 | 0.273 | 0.246 | 0.264 |
| NCI-H2126 | 1.03 | 0.871 | 0.938 | 0.891 | 0.793 | 0.499 | 0.493 | 0.417 | 0.526 | 0.487 | 0.969 | 1.06 | 1.04 | 1.07 | 0.974 | 0.734 | 0.67 | 0.554 |
| RERF-LC-KJ | 1.36 | 1.3 | 1.25 | 1.18 | 0.794 | 0.739 | 0.64 | 0.48 | 0.529 | 0.403 | 0.984 | 0.977 | 1.02 | 1.23 | 0.964 | 0.484 | 0.489 | 0.431 |
| NCI-H3122 | 0.118 | 0.0939 | 0.0988 | 0.112 | 0.0815 | 0.62 | 0.655 | 0.603 | 0.613 | 0.64 | 0.975 | 1.16 | 0.96 | 1 | 1 | 0.159 | 0.117 | 0.114 |
| NCI-H322M | 0.84 | 0.697 | 0.899 | 1.01 | 0.697 | 0.482 | 0.477 | 0.492 | 0.552 | 0.486 | 0.522 | 0.522 | 0.436 | 0.564 | 0.56 | 0.635 | 0.593 | 0.479 |
| NCI-H647 | 0.188 | 0.266 | 0.147 | 0.195 | 0.238 |  | 0.301 | 0.391 | 0.556 | 0.452 | 0.27 | 0.281 | 0.513 | 0.512 | 0.372 | 0.18 | 0.148 | 0.106 |
| EMC-BAC-2 | 1.29 | 1.08 | 1.2 | 1.22 | 0.973 | 0.492 | 0.512 | 0.484 | 0.572 | 0.501 | 1.13 | 1.04 | 0.945 | 1.22 | 0.875 | 0.429 | 0.405 | 0.433 |
| PC-14 | 0.133 | 0.208 | 0.16 | 0.115 | 0.114 |  | 0.785 | 0.778 | 0.498 | 0.533 | 0.334 | 0.238 | 0.396 | 0.514 | 0.302 | 0.145 | 0.134 | 0.124 |
| 201T | 1.03 | 0.988 | 0.981 | 1.08 | 1.02 | 0.7 | 0.69 | 0.621 | 0.662 | 0.698 | 0.542 | 0.674 | 0.69 | 0.707 | 0.56 | 0.334 | 0.332 | 0.323 |
| LXF-289 | 0.651 | 0.632 | 0.741 | 0.752 | 0.449 | 0.705 | 0.922 | 0.893 | 0.899 | 0.676 | 1.01 | 1.17 | 1.06 | 1.27 | 0.982 | 0.874 | 0.983 | 0.805 |
